Measurements reported in US9006517B2, “Methods and compositions for plant pest control” (Monsanto Technology LLC, priority 2008, dated 2015).
≈ marks a conversion by molar mass, not a printed value. Read-outs that look alike come from different tables or passages of the source.

How the values were obtained:
[1] = test system: M. incognita pre-parasitic J2 larvae; test: In vitro nematicidal efficacy of methylketones on M. incognita J2 larvae; format: cell-based; details: Meloidogyne incognita, read-out: IC30 M. incognita vs. J2
Description: (§1) The example illustrates the surprising nematicidal efficacy of various methylketones. Methylketones of various chain lengths were tested in vitro against C. elegans L1 and L4 larvae and M. incognita pre-parasitic J2 larvae, the dispersal larval stage found in the soil. […] IC30 is defined as the concentration of the methylketone at which 30 percent of the nematodes are killed after an exposure of 4 hours for C. elegans and 24 hours for M. incognita.

[2] = test system: C. elegans L1 and L4 larvae; test: In vitro nematicidal efficacy of methylketones on C. elegans larvae; format: cell-based; details: Caenorhabditis elegans
Description: as §1

[3] = test system: root knot nematode (M. incognita); test: Greenhouse whole plant assay, root knot nematode infection of tomato in sand; format: in vivo; details: for nematode control (in words): M. incognita, greenhouse, 40 and 8 kg/ha; for % Control: control of nematode-induced galling; for % Galled Roots: soil application before inoculation, harvest 21 days, no compound added: 60
Description: (§2) Whole plant assays were used to determine the efficacy of the methylketones on the infection of soybean plants and tomato plants by nematodes, H. glycines and M. incognita, respectively. The seeds were planted in 100 percent sand in two-inch square plastic pots and grown to a sufficient size for treatment. […] Following methylketone treatment, nematodes were inoculated into each pot and for soybeans are then incubated for 28 days before harvest and for tomatoes incubated 21 days before harvest.
(§3) To each of four pots, five milliliters of the appropriate chemical solution is applied to the surface making sure to avoid contact with the base of the plant. Immediately following the chemical application, the pot surface is wetted sufficiently to water in the chemical. One milligram of chemical per four pots is approximately equivalent to one kilogram per hectare of chemical. A standard test uses four replications. For rates above 2 kg/ha, the desired amount of chemical is weighed into a 30 ml vial (example: 8 kg/ha rate=8 mg chemical in 30 ml vial). The chemical is dissolved in 2 ml of an appropriate solvent, generally acetone. For rates below 2 kg/ha, 2 milligrams of chemistry is weighed into the vial and dissolved in 2 ml of the solvent. The appropriate amount of chemical concentrate is then applied into a separate 30 ml vial and solvent is added to bring the volume to 2 ml (example 0.5 kg/ha=0.5 ml of concentrate+1.5 ml solvent). Each dissolved concentrate is then brought to a total of 20 milliliters using 0.05% Triton X-100 surfactant solution.
(§4) Nematode eggs, either SCN or RKN, are added to distilled water to create a concentration of 1000 vermiform eggs per […] of water. At least four hours after chemical treatment the eggs are applied to the treated pots plus non-treated check plants. A small hole about 1 cm deep is punched into the pot surface. One milliliter of the nematode egg slurry is applied into the hole. Immediately afterwards the hole is gently covered. Watering of the test plants is then restricted to a minimum volume needed to prevent wilting for a period of 24 hours. After the 24 hour restricted watering, normal sub-irrigation watering is done for the duration of the test.
The 2-undecanone, 2-tridecanone, and 2-pentadecanone are tested in greenhouse studies against M. incognita infection of tomato roots in sand. […] Shown in Table 2 is a high level of nematicidal activity of various methylketones observed against root knot nematode (M. incognita) inoculated into treated pots containing tomato plants. […] The listed kilograms/hectare (kg/ha) rating is based upon the surface area of the test pots; 1 kg/ha equates to about 1.65 mg compound per kilogram of soil in these assays.

[4] = test system: soybean cyst nematode (H. glycines); test: Greenhouse whole plant assay, soybean cyst nematode infection of soybean; format: in vivo; details: for % Control: relative to the non-treated; for #cysts/plant: soil drench prior to inoculation, harvest 28 days, no compound added: 49
Description: as §2, §3, §4
2-tridecanone was also assayed in the greenhouse for control of soybean cyst nematode (H. glycines) in soybeans (Table 3). Nematode control (#cysts/plant) is observed at 40 kg/ha (96% control relative to the non-treated) and 8 kg/ha (80% control relative to the non-treated) when 2-tridecanone was applied as a soil drench prior to nematode inoculation.

[5] = concentration at which 30 percent of the nematodes are killed, exposure 24 hours, J2 larvae
[6] = concentration at which 30 percent of the nematodes are killed, exposure 4 hours, L1 larvae, read-out: IC30 C. elegans vs. L1
[7] = concentration at which 30 percent of the nematodes are killed, exposure 4 hours, L4 larvae, read-out: IC30 C. elegans vs. L4

Compound: CCCCCCCCC(C)=O [2-decanone]
- IC30 [1, 5]: 25 µg/mL (≈ 160 µM)
- IC30 [2, 6]: 6.3 µg/mL (≈ 40.3 µM)
- IC30 [2, 7]: > 400 µg/mL

Compound: CCCCCCCCCCC(C)=O [2-dodecanone]
- IC30 [1, 5]: 50 µg/mL (≈ 271 µM)
- IC30 [2, 6]: 3.2 µg/mL (≈ 17.4 µM)
- IC30 [2, 7]: 25 µg/mL (≈ 136 µM)

Compound: CCCCCC(C)=O [2-heptanone]
- IC30 [1, 5]: 400 µg/mL (≈ 3500 µM)
- IC30 [2, 6]: > 400 µg/mL
- IC30 [2, 7]: > 400 µg/mL

Compound: CCCCCCCC(C)=O [2-nonanone]
- IC30 [1, 5]: 200 µg/mL (≈ 1410 µM)
- IC30 [2, 6]: 12.5 µg/mL (≈ 87.9 µM)
- IC30 [2, 7]: > 400 µg/mL

Compound: CCCCCCCCCCCCCC(C)=O [2-pentadecanone]
- IC30 [1, 5]: 400 µg/mL (≈ 1770 µM)
- nematode control (in words) [3]: demonstrated nematode control
- % Control ([3]; rate 8 kg/ha): 25%
- % Galled Roots ([3]; rate 8 kg/ha): 45%
- % Control ([3]; rate 40 kg/ha): 37%
- % Galled Roots ([3]; rate 40 kg/ha): 38%
- IC30 [2, 6]: 12.5 µg/mL (≈ 55.2 µM)
- IC30 [2, 7]: > 100 µg/mL

Compound: CCCCCCCCCCCCC(C)=O [2-tetradecanone]
- IC30 [1, 5]: 25 µg/mL (≈ 118 µM)
- IC30 [2, 6]: 3.2 µg/mL (≈ 15.1 µM)
- IC30 [2, 7]: > 100 µg/mL

Compound: CCCCCCCCCCCC(C)=O [2-tridecanone]
- IC30 [1, 5]: 50 µg/mL (≈ 252 µM)
- % Control ([4]; rate 8 kg/ha): 80%
- #cysts/plant ([4]; rate 8 kg/ha): 10
- % Control ([4]; rate 40 kg/ha): 96%
- #cysts/plant ([4]; rate 40 kg/ha): 2
- % Control ([3]; rate 8 kg/ha): 97%
- % Galled Roots ([3]; rate 8 kg/ha): 2%
- % Control ([3]; rate 40 kg/ha): 100%
- % Galled Roots ([3]; rate 40 kg/ha): 0%
- IC30 [2, 6]: 3.2 µg/mL (≈ 16.1 µM)
- IC30 [2, 7]: 12.5 µg/mL (≈ 63 µM)

Compound: CCCCCCCCCC(C)=O [2-undecanone]
- IC30 ([1]; 24 h): 50 µg/mL (≈ 294 µM)
- nematode control (in words) [3]: demonstrated nematode control
- % Control ([3]; rate 8 kg/ha): 35%
- % Galled Roots ([3]; rate 8 kg/ha): 39%
- % Control ([3]; rate 40 kg/ha): 65%
- % Galled Roots ([3]; rate 40 kg/ha): 21%
- IC30 ([2]; 4 h, read-out: IC30 C. elegans vs. L1): 6.3 µg/mL (≈ 37 µM)
- IC30 ([2]; 4 h, read-out: IC30 C. elegans vs. L4): 25 µg/mL (≈ 147 µM)
